Data as given in patent publication US9486536B2 (Immunomedics, Inc., priority 2013, dated 2016).

Legend:
[1] = test system: NCI-N87 human gastric carcinoma xenografts; assay: therapy of NCI-N87 xenografts in nude mice; type: in vivo; conditions: for mean tumor volume (mTV) on day 21: starting mTV 0.256 cm^3
Protocol: FIG. 3A. Therapy in nude mice bearing s.c. human tumor xenografts using 2.25 mg/kg protein dose (0.064 mg/kg of drug dose) of MAb-P2PDox conjugates twice weekly×2 weeks in nude mice (n=7) with NCI-N87 human gastric carcinoma xenografts.
Tumor size was determined by caliper measurements of length (L) and width (W) with tumor volume calculated as (L×W^2)/2. Tumors were measured and mice weighed twice a week. Mice were euthanized if their tumors reached >1 cm^3 in size, lost greater than 15% of their starting body weight, or otherwise became moribund. Statistical analysis for the tumor growth data was based on area under the curve (AUC) and survival time. Profiles of individual tumor growth were obtained through linear curve modeling. An f-test was employed to determine equality of variance between groups prior to statistical analysis of growth curves. A two-tailed t-test was used to assess statistical significance between all the various treatment groups and non-specific controls. For the saline control analysis a one-tailed t-test was used to assess significance. Survival studies were analyzed using Kaplan-Meier plots (log-rank analysis), using the Prism GraphPad Software (v4.03) software package (Advanced Graphics Software, Inc.; Encinitas, Calif.). All doses in preclinical experiments are expressed in antibody amounts. In terms of drug, 100 μg of antibody (5 mg/kg) in a 20-g mouse, for example, carries 1.4 μg-2.8 μg ([…]) of P2PDox equivalent dose when using an ADC with 3-6 drugs/IgG.
Using this dosing regimen, we examined the therapeutic effect of hRS7-P2PDox in 2 human tumor xenograft models, Capan-1 (pancreatic cancer) and NCI-N87 (gastric cancer). Therapy began 7 days after tumor transplantation in nude mice.
Anti-TROP-2 antibody conjugate, hRS7-P2PDox, was evaluated in nude mice bearing NCI-N87 human gastric cancer xenografts by administering a single bolus protein dose of 9 mg/kg, 6.75 mg/kg, 4.5 mg/kg, 2.25 mg/kg, or 1 mg/kg. The therapy was started when the mean tumor volume (mTV) was 0.256 cm^3.
Further in vivo efficacy studies were performed in nude mice implanted with NCI-N87 human gastric cancer xenografts (FIG. 13A-F).
The effect of varying dosage schedule on anti-tumor efficacy was examined (FIG. 14, FIG. 19A-G). The experiment began 9 days after tumor implantation when mean tumor volume for all groups was 0.383 cm^3, and ended on day 93 (84 days after initiation of therapy).

[2] = test system: MDA-MB-468 human breast carcinoma xenografts; assay: therapy of MDA-MB-468 xenografts in nude mice; type: in vivo
[3] = serum stability, HIC HPLC; type: in vitro ADME; conditions: human serum, 0.2 mg/mL, 37° C.
Protocol: Serum stability of prototypical P2PDox conjugate, hRS7-P2PDox, was determined by incubating in human serum at a concentration of 0.2 mg/mL at 37° C.

[4] = PK in normal mice, serum antibody by ELISA; type: in vivo; conditions: drug substitution 6.8 or 3.7 vs unmodified hRS7
Protocol: These were analyzed by ELISA for antibody concentration. […] The PK parameters (Cmax, AUC, etc.) were similar.

[5] = test system: Capan-1 human pancreatic adenocarcinoma xenografts; assay: therapy of Capan-1 xenografts in nude mice; type: in vivo
Protocol: FIG. 2. Therapy in nude mice bearing s.c. human tumor xenografts using 2.25 mg/kg protein dose (0.064 mg/kg of drug dose) of MAb-P2PDox conjugates twice weekly×2 weeks in nude mice with Capan-1 human pancreatic adenocarcinoma xenografts (n=5).
Tumors were measured and mice weighed twice a week.
At 63 days after Capan-1 tumor injection (with therapy starting at 1 days post-innoculation), 0 of 10 mice were alive in the saline control, 10 of 10 mice were alive in mice treated twice weekly×2 weeks with 45 μg of hPAM4-P2PDox, 2 of 10 mice were alive in mice treated twice weekly×2 weeks with 45 μg of hA20-P2PDox, 0 of 10 mice were alive in mice treated twice weekly×4 weeks with 250 μg of hPAM4-SN-38, and 0 of 10 mice were alive in mice treated twice weekly×4 weeks with 250 μg of h20-SN-38.

[6] = test system: HIV-1IIIB/MuLV infected splenocytes; assay: HIV-1/MuLV infected cell challenge in mice; type: in vivo; conditions: doses of 100-200 μg
Protocol: P4/D10-P2PDox is tested in vitro for its efficacy in eliminating HIV-1-infected cells among non-infected cells and in a mouse model by removing HIV-1/MuLV (murine leukemia virus) infected syngeneic cells from the intraperitoneal cavity.
A human T-cell line, CEM-1B, with a genetically integrated MuLV genome is infected with HIV-1IIIB, which leads to the production of pseudoviruses with the HIV-1 genome and the MuLV envelope (Adang et al., PNAS USA 1999, 96:12749-753; Hinkula et al., Cells Tissues Organs 2004, 177:169-184). These virus supernatants are used to infect splenocytes from C57B1/6×DBA F1 K^b/d mice transgenic for HLA-A201. Isogenic mice are challenged with HIV-1IIIB/MuLV infected splenocytes i.p. and are immediately given conjugated antibodies or free antibodies i.p. Ten days after challenge, mice are sacrificed and peritoneal cells collected. Peritoneal cells are pelleted and added to 1×10^6 HIV susceptible Jurkat T-cells or human PBMC grown in 24-well plates. From these secondary cultures, supernatant is removed and fresh medium added every 3-4 days. The amount of infectious HIV recovered in the supernatant is measured for 3 weeks by p24 ELISA.
To test the efficacy of P4/D10-P2PDox in vivo, mice are given isogeneic HIV/MuLV-infected cells together with conjugates intraperitoneally.

[7] = test system: MDA-MB-468, AG S, NCI-N87 and Capan-1 solid tumor cell lines; assay: cytotoxicity of P2PDox-mAb conjugates to target cells; type: cell-based, human; conditions: not shown
Excerpt: The cytotoxicity of P2PDox-mAb conjugates to target cells was examined. hRS7-P2PDox and hMN-15-P2PDox were cytotoxic to MDA-MB-468, AG S, NCI-N87 and Capan-1 solid tumor cell lines (not shown). hMN-14-P2PDox was cytotoxic to Capan-1, BxPC-3 and AsPC-1 human pancreatic tumor lines and AGS, NCI-N87 and LS147T human gastric and colonic tumor lines (not shown). hLL2-P2PDOx was cytotoxic to Daudi, Raji, Ramos and JVM-3 hematopoietic tumor lines (not shown). IC50 values for the conjugates were in the nanomolar concentration range (not shown).

hRS7-P2PDox
mice alive at day 94 ([1]; 45 μg q4dx4): 8 of 9 | mice alive at day 94 ([1]; 90 μg weekly×2): 9 of 9 | effect of 2nd course of therapy ([1]; 2nd course administered after day 70): safely tolerated and led to further regressions of residual tumor | effect on tumors, one treatment cycle ([1]; 4×45 μg): rapidly regressed all tumors | effect of second treatment cycle ([1]; second cycle about 2 months after the end of the first cycle): complete regression of all but one | minimum effective dose ([1]; single bolus protein dose): 2.25 mg/kg | mean tumor volume (mTV) on day 21 ([1]; single bolus protein dose 2.25 mg/kg): 0.567±0.179 cm^3 | mean tumor volume (mTV) on day 21 ([1]; single bolus protein dose 4.5 mg/kg): 0.264±0.087 cm^3 | mean tumor volume (mTV) on day 21 ([1]; single bolus protein dose 9 mg/kg): 0.211±0.042 cm^3 | minimum single dose for significant survival benefit compared to saline control ([1]; single dose): 45 µg | single dose giving maximum effect on tumor growth ([1]; single dose): ≥ 90 µg | mice alive at day 94 ([1]; single dose of 180 μg): 78 of 9 | antitumor effects ([2]; 2.25 mg/kg protein dose twice weekly×2 weeks): specific and significant antitumor effects | inhibition of growth compared with hRS7-SN-38 ([2]; not shown): slightly more effective | release of free drug from the conjugate [3]: no release of free drug | PK parameters (Cmax, AUC, etc.) [4]: similar | serum concentrations at various times ([4]; single i.v. dose, 30 min to 168 h): no significant differences in serum concentrations | established tumors regressed ([5]; 4 doses of 45 μg in 2 weeks, therapy began 7 days after transplantation, no re-growth): 100% | inhibition of tumor growth compared with the SN-38 conjugate of the same antibody ([5]; not shown): more effective at inhibiting tumor growth | protection by control conjugates [6]: None of the P2PDox-conjugated control antibodies (hLL1 or hRS7) provide any protection | cytotoxicity [7]: cytotoxic
